In test [1] the target is Tyrosine-protein kinase ABL2 (Homo sapiens, UniProt P42684).
Test [2] concerns the target Bone morphogenetic protein receptor type-1A (Homo sapiens, UniProt P36894).
For test [3], the target named is Tyrosine-protein kinase CSK (Homo sapiens, UniProt P41240).
Test [4] addresses T1, Cytochrome c1, heme protein, mitochondrial (Homo sapiens, UniProt P08574).
T1 sequence (P08574 whole entry): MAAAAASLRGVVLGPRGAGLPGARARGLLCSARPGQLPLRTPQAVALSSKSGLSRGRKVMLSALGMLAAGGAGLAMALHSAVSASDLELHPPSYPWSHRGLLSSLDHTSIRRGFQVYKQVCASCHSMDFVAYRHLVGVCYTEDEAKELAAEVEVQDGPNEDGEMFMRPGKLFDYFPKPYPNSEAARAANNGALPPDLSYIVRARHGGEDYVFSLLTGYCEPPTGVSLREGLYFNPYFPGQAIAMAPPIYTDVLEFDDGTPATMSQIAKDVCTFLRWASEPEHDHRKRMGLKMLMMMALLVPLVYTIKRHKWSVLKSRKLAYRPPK

Test [5] deals with Tyrosine-protein kinase Fyn (Homo sapiens, UniProt P06241).
Test [6] deals with T2, Scaffold protein ILK (Homo sapiens, UniProt Q13418).
T2 sequence (Q13418 whole entry): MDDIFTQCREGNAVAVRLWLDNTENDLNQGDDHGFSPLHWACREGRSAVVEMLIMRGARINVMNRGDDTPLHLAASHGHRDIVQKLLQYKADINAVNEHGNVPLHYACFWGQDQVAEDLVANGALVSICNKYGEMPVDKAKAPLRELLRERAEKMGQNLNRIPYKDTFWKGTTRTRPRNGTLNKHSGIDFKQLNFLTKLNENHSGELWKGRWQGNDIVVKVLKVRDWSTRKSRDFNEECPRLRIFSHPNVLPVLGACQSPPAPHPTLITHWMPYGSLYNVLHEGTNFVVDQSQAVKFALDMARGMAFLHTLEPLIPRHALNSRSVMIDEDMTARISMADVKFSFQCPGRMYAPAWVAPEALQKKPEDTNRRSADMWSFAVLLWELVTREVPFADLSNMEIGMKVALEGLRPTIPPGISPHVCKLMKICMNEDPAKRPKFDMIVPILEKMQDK

Test [7] concerns the target T3, Serine/threonine-protein kinase LATS1 (Homo sapiens, UniProt O95835).
T3 sequence (O95835 whole entry): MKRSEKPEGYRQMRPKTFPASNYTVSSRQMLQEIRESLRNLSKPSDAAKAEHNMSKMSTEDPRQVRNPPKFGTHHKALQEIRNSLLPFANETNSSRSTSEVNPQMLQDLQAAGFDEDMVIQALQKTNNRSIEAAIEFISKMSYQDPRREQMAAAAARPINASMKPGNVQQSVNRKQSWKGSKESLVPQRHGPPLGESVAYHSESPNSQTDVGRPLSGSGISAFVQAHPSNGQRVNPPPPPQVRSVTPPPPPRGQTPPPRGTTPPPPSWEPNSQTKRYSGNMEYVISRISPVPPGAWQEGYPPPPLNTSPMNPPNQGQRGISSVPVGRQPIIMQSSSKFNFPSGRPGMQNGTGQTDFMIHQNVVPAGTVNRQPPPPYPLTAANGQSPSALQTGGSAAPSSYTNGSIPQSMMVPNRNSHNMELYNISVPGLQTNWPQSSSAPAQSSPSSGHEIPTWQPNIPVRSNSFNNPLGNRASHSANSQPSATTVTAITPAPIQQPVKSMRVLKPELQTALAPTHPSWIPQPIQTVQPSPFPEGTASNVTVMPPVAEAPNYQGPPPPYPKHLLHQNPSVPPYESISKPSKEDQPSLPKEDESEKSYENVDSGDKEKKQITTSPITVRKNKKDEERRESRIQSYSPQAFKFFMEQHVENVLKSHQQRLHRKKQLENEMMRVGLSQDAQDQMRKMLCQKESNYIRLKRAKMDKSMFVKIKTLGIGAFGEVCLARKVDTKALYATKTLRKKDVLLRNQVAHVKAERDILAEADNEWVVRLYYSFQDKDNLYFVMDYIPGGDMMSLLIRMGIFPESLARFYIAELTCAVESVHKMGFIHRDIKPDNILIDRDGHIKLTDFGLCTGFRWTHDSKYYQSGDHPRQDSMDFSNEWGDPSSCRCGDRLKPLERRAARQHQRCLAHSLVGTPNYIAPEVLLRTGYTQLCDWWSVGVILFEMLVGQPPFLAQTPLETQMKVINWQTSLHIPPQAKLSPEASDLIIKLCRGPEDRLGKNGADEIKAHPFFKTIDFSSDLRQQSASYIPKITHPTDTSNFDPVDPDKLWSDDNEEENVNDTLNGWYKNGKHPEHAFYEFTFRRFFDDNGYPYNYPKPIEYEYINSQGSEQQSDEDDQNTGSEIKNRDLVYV

In test [8] the target is S-adenosylmethionine synthase isoform type-2 (Homo sapiens, UniProt P31153).
Test [9] addresses T4, ADP/ATP translocase 2 (Homo sapiens, UniProt P05141).
T4 sequence (P05141 whole entry): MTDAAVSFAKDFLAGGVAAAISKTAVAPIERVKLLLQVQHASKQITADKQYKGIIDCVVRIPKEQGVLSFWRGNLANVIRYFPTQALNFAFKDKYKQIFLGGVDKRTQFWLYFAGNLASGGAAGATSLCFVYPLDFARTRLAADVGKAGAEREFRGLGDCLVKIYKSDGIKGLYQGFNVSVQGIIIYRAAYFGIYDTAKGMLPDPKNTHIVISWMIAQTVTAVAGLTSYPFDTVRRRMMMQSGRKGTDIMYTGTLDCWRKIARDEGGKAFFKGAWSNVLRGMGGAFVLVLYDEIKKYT

Test [10] deals with Tyrosine-protein kinase Yes (Homo sapiens, UniProt P07947).

Activity calls are given as the source filed them.
Further: in the data inactive means no Kd found up to 30 µM.

Chain of Tyrosine-protein kinase CSK (P41240 whole entry): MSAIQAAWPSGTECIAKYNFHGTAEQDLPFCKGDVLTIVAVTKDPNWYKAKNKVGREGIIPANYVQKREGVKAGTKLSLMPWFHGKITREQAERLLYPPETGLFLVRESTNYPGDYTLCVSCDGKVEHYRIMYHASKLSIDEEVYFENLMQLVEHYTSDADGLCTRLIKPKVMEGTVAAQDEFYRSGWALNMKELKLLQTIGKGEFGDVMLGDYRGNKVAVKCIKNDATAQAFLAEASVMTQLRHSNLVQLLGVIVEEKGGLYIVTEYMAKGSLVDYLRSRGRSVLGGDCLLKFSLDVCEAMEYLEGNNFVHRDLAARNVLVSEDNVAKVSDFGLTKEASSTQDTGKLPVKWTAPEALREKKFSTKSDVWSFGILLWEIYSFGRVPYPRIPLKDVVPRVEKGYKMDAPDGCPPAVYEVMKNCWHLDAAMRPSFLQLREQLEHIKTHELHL
Chain of S-adenosylmethionine synthase isoform type-2 (P31153 whole entry, canonical isoform): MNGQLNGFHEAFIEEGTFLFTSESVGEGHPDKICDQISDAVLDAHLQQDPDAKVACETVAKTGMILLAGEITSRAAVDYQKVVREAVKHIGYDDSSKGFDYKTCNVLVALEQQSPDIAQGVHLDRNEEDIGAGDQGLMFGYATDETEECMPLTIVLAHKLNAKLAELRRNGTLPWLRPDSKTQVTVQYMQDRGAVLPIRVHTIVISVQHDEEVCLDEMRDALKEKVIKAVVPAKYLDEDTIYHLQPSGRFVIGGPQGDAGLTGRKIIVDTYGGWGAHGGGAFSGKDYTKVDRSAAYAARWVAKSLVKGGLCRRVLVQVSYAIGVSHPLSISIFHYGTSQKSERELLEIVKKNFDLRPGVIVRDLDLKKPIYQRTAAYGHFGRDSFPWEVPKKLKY
Chain of Tyrosine-protein kinase ABL2 (P42684 whole entry): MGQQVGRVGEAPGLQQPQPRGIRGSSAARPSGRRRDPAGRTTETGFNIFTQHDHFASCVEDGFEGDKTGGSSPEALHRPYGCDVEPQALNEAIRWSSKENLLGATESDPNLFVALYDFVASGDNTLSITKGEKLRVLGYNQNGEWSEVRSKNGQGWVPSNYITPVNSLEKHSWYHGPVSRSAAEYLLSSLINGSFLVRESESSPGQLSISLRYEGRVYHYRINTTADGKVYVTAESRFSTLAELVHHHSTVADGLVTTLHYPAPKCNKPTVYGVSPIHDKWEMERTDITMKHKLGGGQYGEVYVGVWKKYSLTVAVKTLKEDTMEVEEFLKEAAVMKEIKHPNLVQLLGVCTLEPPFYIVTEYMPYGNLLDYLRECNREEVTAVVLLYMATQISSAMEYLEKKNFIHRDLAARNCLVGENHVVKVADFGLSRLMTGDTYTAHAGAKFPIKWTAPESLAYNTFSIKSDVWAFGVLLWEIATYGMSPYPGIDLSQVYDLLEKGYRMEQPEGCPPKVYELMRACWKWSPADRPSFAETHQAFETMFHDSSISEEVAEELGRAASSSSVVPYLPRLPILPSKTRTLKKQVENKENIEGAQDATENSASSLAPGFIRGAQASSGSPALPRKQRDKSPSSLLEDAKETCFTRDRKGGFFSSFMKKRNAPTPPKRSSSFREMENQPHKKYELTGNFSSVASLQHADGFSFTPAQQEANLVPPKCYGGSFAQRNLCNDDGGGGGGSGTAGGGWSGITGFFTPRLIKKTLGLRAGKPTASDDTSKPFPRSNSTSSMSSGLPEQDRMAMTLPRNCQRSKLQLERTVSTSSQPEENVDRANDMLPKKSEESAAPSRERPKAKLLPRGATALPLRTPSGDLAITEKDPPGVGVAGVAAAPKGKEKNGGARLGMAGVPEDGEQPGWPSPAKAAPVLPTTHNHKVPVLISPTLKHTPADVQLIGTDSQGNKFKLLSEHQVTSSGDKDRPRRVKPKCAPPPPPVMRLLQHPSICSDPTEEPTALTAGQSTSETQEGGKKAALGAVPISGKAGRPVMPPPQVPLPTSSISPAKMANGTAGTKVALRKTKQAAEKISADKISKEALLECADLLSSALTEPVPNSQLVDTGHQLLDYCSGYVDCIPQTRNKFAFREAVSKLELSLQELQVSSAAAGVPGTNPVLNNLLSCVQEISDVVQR
Chain of Bone morphogenetic protein receptor type-1A (P36894 whole entry): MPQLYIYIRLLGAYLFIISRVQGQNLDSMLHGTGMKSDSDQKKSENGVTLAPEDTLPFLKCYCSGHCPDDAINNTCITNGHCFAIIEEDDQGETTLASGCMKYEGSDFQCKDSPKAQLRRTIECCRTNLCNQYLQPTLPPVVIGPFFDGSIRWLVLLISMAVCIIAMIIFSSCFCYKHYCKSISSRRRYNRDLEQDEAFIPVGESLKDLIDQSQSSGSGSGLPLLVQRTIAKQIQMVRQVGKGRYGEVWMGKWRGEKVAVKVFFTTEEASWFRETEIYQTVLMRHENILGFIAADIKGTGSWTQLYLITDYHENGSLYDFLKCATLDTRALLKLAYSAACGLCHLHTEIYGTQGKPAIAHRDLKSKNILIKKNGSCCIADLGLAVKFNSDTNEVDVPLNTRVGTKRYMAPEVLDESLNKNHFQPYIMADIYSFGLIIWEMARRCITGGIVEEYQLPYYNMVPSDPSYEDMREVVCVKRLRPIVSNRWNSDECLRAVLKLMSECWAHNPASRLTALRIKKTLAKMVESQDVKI
Chain of Tyrosine-protein kinase Fyn (P06241 whole entry): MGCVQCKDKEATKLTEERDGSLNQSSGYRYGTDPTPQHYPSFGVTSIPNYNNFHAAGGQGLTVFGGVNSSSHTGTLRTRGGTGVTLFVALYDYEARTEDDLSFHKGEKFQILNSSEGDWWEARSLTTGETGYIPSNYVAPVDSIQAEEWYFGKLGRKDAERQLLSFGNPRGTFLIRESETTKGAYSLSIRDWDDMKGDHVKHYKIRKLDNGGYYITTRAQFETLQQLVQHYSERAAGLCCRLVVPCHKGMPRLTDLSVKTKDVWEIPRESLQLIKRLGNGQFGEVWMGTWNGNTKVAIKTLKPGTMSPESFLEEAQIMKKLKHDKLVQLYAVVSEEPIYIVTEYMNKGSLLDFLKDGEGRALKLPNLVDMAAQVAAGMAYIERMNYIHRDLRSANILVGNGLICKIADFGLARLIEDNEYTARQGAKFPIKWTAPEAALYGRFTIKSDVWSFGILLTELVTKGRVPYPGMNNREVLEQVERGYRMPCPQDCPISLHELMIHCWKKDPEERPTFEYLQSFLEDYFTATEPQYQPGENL
Chain of Tyrosine-protein kinase Yes (P07947 whole entry): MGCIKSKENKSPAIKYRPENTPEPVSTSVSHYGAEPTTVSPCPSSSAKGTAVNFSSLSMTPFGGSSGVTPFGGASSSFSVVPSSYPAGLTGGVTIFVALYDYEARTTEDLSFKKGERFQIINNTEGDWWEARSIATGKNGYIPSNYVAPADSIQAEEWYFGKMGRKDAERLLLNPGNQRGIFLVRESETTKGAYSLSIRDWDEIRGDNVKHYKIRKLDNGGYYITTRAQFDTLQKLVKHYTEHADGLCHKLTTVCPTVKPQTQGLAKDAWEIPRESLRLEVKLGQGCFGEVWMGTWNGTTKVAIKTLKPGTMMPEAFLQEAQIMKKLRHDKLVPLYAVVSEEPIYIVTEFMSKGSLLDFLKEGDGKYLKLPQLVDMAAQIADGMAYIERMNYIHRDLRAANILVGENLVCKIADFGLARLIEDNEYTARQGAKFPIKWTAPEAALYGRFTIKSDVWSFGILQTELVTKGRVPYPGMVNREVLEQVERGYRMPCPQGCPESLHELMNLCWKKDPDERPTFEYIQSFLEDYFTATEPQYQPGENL

What is called Kd is the free concentration of one partner at which half of the binding sites on the other are occupied at equilibrium, for simple one-to-one binding. Turning to `CC[C@@H]1C(=O)N(C)c2cnc(Nc3ccc(C(=O)N[C@H]4CC[C@H](N5CCN(CC6CC6)CC5)CC4)cc3OC)nc2N1C(C)C` [VOLASERTIB], the Kd in test [1], in test [2], in [3], in [4], in test [5] and in [6] was > 30 µM (inactive) each time. In addition, the Kd in [7], in test [8], in test [9] and in test [10] was > 30 µM (inactive) throughout.

Take `Cn1cc(-c2ccc(F)c(C(F)(F)F)c2)nc1C1CCN(c2ncnc3[nH]ncc23)CC1` [LY-2584702]: the Kd in [1], in [2], in test [3], in test [4], in [5] and in test [6] was > 30 µM (inactive) each time. For the same compound, the Kd in test [7], in test [9] and in [10] was > 30 µM (inactive) in each case.

Consider `COc1cc(OC)c(/C=C/S(=O)(=O)Cc2ccc(OC)c(NCC(=O)O)c2)c(OC)c1` [RIGOSERTIB], for which the Kd in [1], in test [2], in test [3], in test [4], in test [5] and in [6] was > 30 µM (inactive) throughout. For the same compound, the Kd in [7], in test [8], in [9] and in test [10] was > 30 µM (inactive) in each case.

Turning to `CCn1c(=O)c(-c2cc[nH]n2)cc2c(C)nc(N)nc21` [VOXTALISIB], the Kd in test [1], in test [2], in test [3], in [4], in test [5] and in test [6] was > 30 µM (inactive) each time. Besides, the Kd in test [7], in test [8], in test [9] and in test [10] was > 30 µM (inactive) in each case.

Take `Cc1c(F)cc(C(=O)NC2CC2)cc1-c1ccc(C(=O)NCC(C)(C)C)cn1` [LOSMAPIMOD]: the Kd in test [1], in [2], in test [3], in test [4], in [5] and in [6] was > 30 µM (inactive) each time. The Kd in test [7], in test [9] and in test [10] was > 30 µM (inactive) throughout.

In the case of `COc1cc(CCc2cc(NC(=O)c3ccc(N4C[C@@H](C)N[C@@H](C)C4)cc3)n[nH]2)cc(OC)c1` [AZD-4547], the Kd in test [1], in test [2], in test [3], in test [4], in test [5] and in [6] was > 30 µM (inactive) in each case. For the same compound, the Kd in test [7], in test [9] and in test [10] was > 30 µM (inactive) in each case.

`COc1cc2nccc(Oc3ccc(NC(=O)NC4CC4)c(Cl)c3)c2cc1C(N)=O` [LENVATINIB]: the Kd in [1], in test [3], in test [4], in test [5], in test [6] and in test [7] was > 30 µM (inactive) throughout. The Kd in [8], in [9] and in [10] was > 30 µM (inactive) each time.

With `CCN1CCN(Cc2ccc(-c3cc4c(N[C@H](C)c5ccccc5)ncnc4[nH]3)cc2)CC1` [AEE-788], the equilibrium dissociation constant (Kd) in test [1] is 14.9 µM (active); in test [2], > 30 µM (inactive); in [3], > 30 µM (inactive); in test [4], > 30 µM (inactive); in test [5], > 30 µM (inactive); in [6], > 30 µM (inactive). The Kd in test [7], in test [8] and in test [9] was > 30 µM (inactive) throughout.

With `Cc1ccc(NC(=O)c2ccc(CN3CC[C@H](N(C)C)C3)c(C(F)(F)F)c2)cc1Nc1nccc(-c2cncnc2)n1` [BAFETINIB], the Kd in [2] is > 30 µM (inactive); in test [3] it was 2.15 µM (active); in [4], > 30 µM (inactive); in test [5], 1.44 µM (active); in test [6], > 30 µM (inactive); in test [7], > 30 µM (inactive). Also, the Kd in test [9] and in test [10] was > 30 µM (inactive) in each case.

With `COCCNCc1ccc(-c2cc3nccc(Oc4ccc(NC(=S)NC(=O)Cc5ccc(F)cc5)cc4F)c3s2)nc1` [GLESATINIB], the Kd in test [2] is > 30 µM (inactive); in [3], > 30 µM (inactive); in [4], > 30 µM (inactive); in test [5], 1.24 µM (active); in test [6], > 30 µM (inactive); in test [7], > 30 µM (inactive). In addition, the Kd in [8], in [9] and in test [10] was > 30 µM (inactive) in each case.

For `Cn1cc(-c2ccc3nnc(C(F)(F)c4ccc5ncccc5c4)n3n2)cn1` [JNJ-38877605], the Kd in test [1], in test [2], in [3], in test [4], in test [5] and in test [6] was > 30 µM (inactive) in each case. Besides, the Kd in test [7], in test [9] and in test [10] was > 30 µM (inactive) each time.
